According to article PMC4788259 (PLoS Neglected Tropical Diseases, 2016):

Tested on: E. multilocularis metacestodes
Assay: PGI assay: phosphoglucose isomerase release from damaged metacestodes
Format: cell-based, Echinococcus multilocularis
Conditions: 10 μM, 5 days, single wells, relative to DB1127 (10 μM)
Outline: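 Damage readout: PGI enzyme release after 5-day in vitro culture of 2–4 mm metacestode vesicles (H95 strain, from i.p.-infected BALB/c mice) with compound. Primary screen: 10 μM per single well, 0.1% DMSO negative control. EC50 calculated from PGI release data.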

Row | SMILES | PGI (% of DB1127 at 10 uM) [%]
1 | Br.CCn1c2c(c(=N)c3c1CCC3)CCCC2 [MMV000340] | 2.86
2 | Oc1c(C(Nc2ccccn2)c2cccc(Oc3ccccc3)c2)ccc2cccnc12 (centres unmarked) [MMV665814] | -6.04
3 | Cc1cc(N(C)C)nc(Nc2ccc(NC(=O)Nc3ccccc3)cc2)n1 [MMV020243] | 0.64
4 | Cc1ccc(Nc2nc(NCCO)c3ccccc3n2)cc1C [MMV001038] | 16.86
5 | COc1ccc(Nc2cc(C)nc(NCc3ccccc3)n2)cc1 [MMV006825] | 17.48
6 | CCOc1ccc(Nc2c3ccccc3nc3ccccc23)cc1.Cl [MMV000304] | 38.31
7 | CCOc1cc(Br)c(C(C)NC(=O)c2cccc(OC)c2)cc1OCC (centres unmarked) [MMV665796] | -1.06
8 | CC1CC(C)CN(C(=O)c2ccc(Cl)cc2Cl)C1 (centres unmarked) [MMV001344] | -22.37
9 | CCN(CC)c1ccc(NC(=O)c2cccs2)cc1 [MMV009060] | -36.82
10 | O=c1c2c([nH]c3ccccc13)CCCC2 [MMV665843] | -19.31
11 | CN1CCN(c2ccc(Nc3c4ccccc4nc4ccccc34)cc2)CC1 [MMV006172] | 2.41
12 | CCN(CC)CCNc1ncnc2c1[nH]c1ccc(Br)cc12 [MMV006545] | -33.20
13 | COc1ccccc1CNC(=O)C1c2ccccc2C(=O)N(CC(C)C)C1c1cccs1 (centres unmarked) [MMV000648] | -8.86
14 | CC(C)(C)C(=O)Nc1ccc(C(=O)Nc2cccc(-c3nc4ccccc4[nH]3)c2)cc1 [MMV665879] | 17.15
15 | O=C(NC1CCN(Cc2ccccc2)CC1)c1cc(-c2ccncc2)nc2ccc(Cl)cc12 [MMV020275] | -18.74
16 | O=C(c1ccccc1F)N(Cc1ccc(Cl)cc1)c1ccccn1 [MMV665899] | -103.42
17 | COc1ccc(C=C2SC(Nc3ccc(F)cc3)=NC2=O)c(OC)c1 [MMV084434] | 7.76
18 | Cc1ccc(NC(=O)Nc2cccc(Cl)c2)cc1F [MMV000911] | 185.05
19 | CCCc1c(C)nc2ccc(Br)cc2c1O [MMV666095] | -30.45
20 | COc1ccc2c(=O)cc(C(Cl)(Cl)Cl)oc2c1 [MMV665820] | -22.08
21 | O=C(O)C1Cc2c([nH]c3ccccc23)C(c2ccc(Cl)cc2Cl)N1 (centres unmarked) [MMV008138] | -14.05

Row | SMILES | PGI (% of DB1127 at 10 uM) [%]
22 | Clc1ccc2[nH]c3c(NCCCN4CCOCC4)ncnc3c2c1 [MMV006587] | -6.35
23 | Cc1cccc(Nc2nc(N)c3ccccc3n2)c1.Cl [MMV019110] | -9.63
24 | CCOc1cc2c(cc1OCC)C(c1cc(C)c(O)c(C)c1)NCC2.Cl (centres unmarked) [MMV000483] | -22.26
25 | COc1ccc(-c2nonc2NC(=O)c2cccc(C)c2)cc1OC [MMV665890] | -8.07
26 | CCC(=O)Nc1nnc(Cc2ccc(OC)c(OC)c2)s1 [MMV020942] | -6.11
27 | N=c1c2ccccc2nnn1-c1cccc(C(F)(F)F)c1 [MMV665923] | 18.29
28 | CCOc1cc2c(cc1OCC)C(c1cc(Cl)ccc1O)NCC2 (centres unmarked) [MMV000478] | 32.45
29 | Oc1ccc2ccccc2c1CNc1nc2ccccc2[nH]1 [MMV011832] | 34.82
30 | COc1ccc(C=C2SC(=N)N(c3ccccc3OC)C2=O)cc1 [MMV666691] | -41.85
31 | CCOC(=O)c1c(NC(=O)c2ccccc2)sc2c(O)c(CN(CC)CC)ccc12 [MMV665831] | -16.80
32 | CC1=C(CC(=O)c2cccc([N+](=O)[O-])c2)C(=O)c2ccccc2C1=O [MMV666125] | -2.81
33 | CCN(CC)CCNc1ncnc2c1[nH]c1ccc(Cl)cc12 [MMV396703] | -47.33
34 | CCCN(CCC)CCCNC(=O)c1cc2c(-c3ccc(OC)c(OC)c3)nn(C)c2s1 [MMV000561] | -1.54
35 | COc1ccc2c(c1)C1(Nc3ccccc3-c3nc4ccccc4n31)C(=O)N2 (centres unmarked) [MMV396749] | 0.0365
36 | Oc1ccccc1CN1CCC2(CCCN(Cc3ccccc3F)C2)C1 (centres unmarked) [MMV666116] | -7.59
37 | O=C(Nc1ccc(N2CCCCC2)c(Cl)c1)c1ccc(Br)o1 [MMV019700] | -40.52
38 | Cc1ccc(Cl)cc1N1CCN(CCCNC(=O)C2CCN(c3nc4ccccc4[nH]3)CC2)CC1 [MMV019746] | -24.98
39 | Cc1[nH]c(-c2ccc(F)cc2)cc1C(=O)NC1CCN(Cc2ccccc2)CC1 [MMV019738] | 12.98
40 | Cc1ccc2c(C)nc(Nc3nc(C)cc(-c4ccccc4)n3)nc2c1 [MMV007041] | -2.18
41 | Cc1cc(C)c2nc(N3CCC(C(=O)NCCCN4CCC(N5CCCCC5)CC4)CC3)sc2c1 [MMV019780] | 36.03
42 | CCOc1ccc(CN2CCN(CC(O)COc3ccc(OCC(O)CN4CCN(Cc5ccc(OCC)cc5)CC4)cc3)CC2)cc1 (centres unmarked) [MMV007092] | -3.58

Row | SMILES | PGI (% of DB1127 at 10 uM) [%]
43 | CC1CCN(Cc2ccc(NC(=O)c3cc4ccc5cccnc5c4[nH]3)cc2)CC1 [MMV020549] | -59.67
44 | COc1ccc(-c2nc(NC(=O)CS(=O)(=O)c3ccc(F)cc3)sc2C)cc1 [MMV665915] | -67.15
45 | COc1ccc2nc(C)cc(Nc3ccc(Cl)cc3)c2c1 [MMV007875] | -32.27
46 | CCN(Cc1ccccc1)C1CCN(Cc2cc(Br)ccc2O)CC1.O=C(O)C(=O)O [MMV019127] | -5.90
47 | COc1ccc(CNC(=O)c2cc3c(=O)n4ccccc4nc3n(CCc3ccccc3)c2=N)cc1 [MMV665881] | 6.76
48 | CCOc1ccc2c(c1)CN(Cc1ccc(Cl)cc1)CO2 [MMV000443] | -40.44
49 | COc1ccc(-c2nonc2NC(=O)c2cccc(Cl)c2)cc1OC [MMV020660] | -20.61
50 | Cc1ccc(-c2nc3ccccc3o2)cc1NCc1cc(Cc2ccccc2)ccc1O [MMV020912] | -2.94
51 | CCOC(=O)C1(Cc2ccccc2)CCN(Cc2cccc(OC)c2O)CC1 [MMV666109] | -8.56
52 | O=C(Nc1ccc(CN2CCOCC2)cc1)c1ccc(-c2ccc(Br)cc2)o1 [MMV665901] | -20.18
53 | COc1ccc(CN2CCCC(C(=O)c3ccc(C(F)(F)F)cc3)C2)c(O)c1 (centres unmarked) [MMV666060] | -1.92
54 | O=C(NC1CCN(Cc2ccccc2)CC1)c1cc(-c2cccnc2)nc2ccc(Cl)cc12 [MMV020490] | -15.64
55 | Cc1cc(Nc2ccc(Cl)cc2)n2nc(C(F)(F)F)nc2n1 [MMV011256] | -32.20
56 | CC1CCCCN1CCCNC(=O)c1ccc2c(c1)sc1nc(-c3ccc(F)cc3)cn12 (centres unmarked) [MMV000634] | -120.82
57 | COc1ccc(N2CCN(C(CNC(=O)C3CCCCC3)c3ccc4c(c3)OCO4)CC2)cc1 (centres unmarked) [MMV019662] | -7.72
58 | COc1ccc2c(c1OC)C(=O)N1c3ccccc3N=C(c3ccc(C)cc3)CC21 (centres unmarked) [MMV000917] | -0.60
59 | CCCCCCn1c(=N)n(CC(O)COc2cccc(C)c2)c2ccccc21.Cl (centres unmarked) [MMV000445] | 130.28
60 | COc1cc2cc(C(=O)Nc3ccccc3)c(N)nc2cc1OC [MMV006767] | -7.82
61 | Cc1cc(Nc2ccc(C)c(Cl)c2)n2nc(C(F)(F)F)nc2n1 [MMV665874] | -25.13
62 | CC1CN(C(=O)c2sc3ccccc3c2Cl)CC(C)O1 (centres unmarked) [MMV020492] | -44.30
63 | CCc1c(C)c(=N)c2ccccc2n1C.I [MMV006278] | -42.72

Row | SMILES | PGI (% of DB1127 at 10 uM) [%]
64 | Cc1cc(Nc2ccc3ccccc3c2)n2ncnc2n1 [MMV011099] | -50.58
65 | OC(CNC1CCCCC1)Cn1c2ccc(I)cc2c2cc(I)ccc21 (centres unmarked) [MMV665882] | 54.36
66 | COCCn1c(C)nc2ccccc2c1=O [MMV665904] | -26.17
67 | O=c1nc(C=Cc2ccc(Cl)cc2)oc2ccccc12 [MMV007977] | 41.38
68 | COc1cc(SC)ccc1C(=O)N1CCCC(C)C1 (centres unmarked) [MMV056726] | 16.15
69 | COc1cc(CNCCc2ccc(Cl)cc2)cc(OC)c1O [MMV128432] | -10.12
70 | O=C(Nc1ccc(-c2nc3cc4ccccc4cc3[nH]2)cc1)c1cccc(Br)c1 [MMV019241] | -30.92
71 | O=C(NC1CCCC1)c1ccc(N2CCC(NCc3cccc(C(F)(F)F)c3)CC2)cc1 [MMV666070] | -8.11
72 | OC(Cn1nnc2ccccc21)Cn1c2ccc(Br)cc2c2cc(Br)ccc21 (centres unmarked) [MMV666025] | 1.46
73 | CCCCc1c(C)nc2c(OC)cccc2c1O [MMV006820] | 1.39
74 | CCCC(c1nnnn1C1CCCCC1)N1CCN(C(=O)c2ccco2)CC1.Cl (centres unmarked) [MMV666093] | -0.54
75 | COc1ccc(C(=O)C2CC2c2ccc(Cl)cc2)cc1 (centres unmarked) [MMV665924] | -13.71
76 | COc1ccccc1N1CCN(C(CNS(=O)(=O)c2ccc(Cl)cc2)c2cccnc2)CC1 (centres unmarked) [MMV665914] | 1.92
77 | COc1ccc(CCN2CCC(CN(C)Cc3cnn(-c4ccccc4)c3)CC2)cc1 [MMV666069] | -33.62
78 | O=C1c2ccccc2C2=Nc3ccccc3SC(c3cccc(F)c3)C12 (centres unmarked) [MMV006389] | -15.52
79 | CCc1ccc(CNCC(O)c2ccccc2)cc1.Cl (centres unmarked) [MMV665812] | -2.45
80 | Cc1ccc(-c2cc3c(nn2)-c2ccccc2C3=O)cc1 [MMV666021] | -22.93
81 | Cc1cc(C)c2c(c1)OCN(Cc1ccccc1Cl)C2 [MMV006558] | -21.27
82 | Cc1ccc(-c2cc(C(=O)Nc3ccc(S(=O)(=O)N4CCCCC4)cc3)[nH]n2)c(O)c1 [MMV665906] | -8.23
83 | COc1ccc(CCNC(=O)c2cc(S(=O)(=O)N3CC(C)CC(C)C3)ccc2Sc2ccc(F)cc2)cc1OC (centres unmarked) [MMV007557] | 14.98
